According to patent US11168058B2, “Manufacture of a crystalline pharmaceutical product” (ORION CORPORATION, priority 2017, dated 2021):

How the values were obtained:
Type in all cases: physicochemical
[1] = Specific surface area (SSA) by three-point nitrogen adsorption (BET), TriStar 3000; conditions: for Specific surface area: Table 2, batch B; for Specific surface area / SSA: crystalline rounded particles before/after milling; for SSA: Table 1, batch A
Procedure: The specific surface area (SSA) of crystalline particles of compound (I) can be analyzed using the three-point nitrogen adsorption technique based on the Brunauer, Emmett and Teller (BET) theory, for example using TriStar 3000 automated gas adsorption analyzer, (Micromeritics, Inc.). The samples are suitably vacuum dried for 20 hours at 40° C. The volumetric method can be used at the relative pressure range of 0.1-0.3 P/P0.
(§1) The specific surface area (SSA) and particle size distribution (PSD) were determined for two batches (A and B) of crystalline rounded particles of compound (I) prepared according to the present invention. The particles of the two batches were then milled followed by the determination of SSA and PSD.
The specific surface area was measured using the three-point nitrogen adsorption technique based on the Brunauer, Emmett and Teller (BET) theory using TriStar 3000 automated gas adsorption analyzer (Micromeritics, Inc.). The samples were vacuum dried for 20 hours in 40° C. The volumetric method was applied at the relative pressure range 0.1-0.3 P/P0.

[2] = Particle size distribution by laser light diffraction (Beckman Coulter LS13320, dry powder); conditions: for Volume particle size, Dv10 / Volume particle size, Dv50 / Volume particle size, Dv90: before/after milling
Procedure: The particle size distribution of crystalline particles of compound (I) can be analyzed by laser light diffraction, for example using Beckman Coulter LS13320 laser diffraction particle size analyzer equipped with Tornado Dry Powder System using air as dispersion medium with measurement pressure 24″H2O±2″H2O, sample amount 10 ml, system controlled target 5% for obscuration and applying Fraunhofer optical model.
The parameters considered are the volumetric diameters in μm of the 10th, 50th and 90th percentiles of the particles, expressed as Dv10, Dv50 and Dv90 respectively, which are determined by assuming that the particles have a geometric shape equivalent to a sphere.
The particle size distribution of the crystalline rounded particles of compound (I) prepared according to the present invention was determined by laser light diffraction. The determination was carried out by using Beckman Coulter LS13320 laser diffraction particle size analyzer equipped with Tornado Dry Powder System using air as dispersion medium with measurement pressure 24″H2O±2″H2O, sample amount 10 ml, system controlled target 5% for obscuration and applying Fraunhofer optical model. According to the analysis, Dv10 value of the particles is 359 μm, Dv50 is 632 μm and Dv90 is 925 μm.
as §1

[3] = Solubility in water (statement)
[4] = Example 4, crystalline rounded particles, FIG. 1

Row | Specific surface area [1] | Volume particle size, Dv10 ([2]; Table 2, batch B) | Volume particle size, Dv50 ([2]; Table 2, batch B) | Volume particle size, Dv90 ([2]; Table 2, batch B) | SSA [1] | Volume particle size, Dv10 ([2]; Table 1, batch A) | Volume particle size, Dv50 ([2]; Table 1, batch A) | Volume particle size, Dv90 ([2]; Table 1, batch A) | Structure (SMILES) | also measured
1 |  |  |  |  |  |  |  |  | CC(O)c1cc(C(=O)N[C@@H](C)Cn2ccc(-c3ccc(C#N)c(Cl)c3)n2)n[nH]1 (stereo partly drawn) [compound (I), N—((S)-1-(3-(3-chloro-4-cyanophenyl)-1H-pyrazol-1-yl)-propan-2-yl)-5-(1-hydroxyethyl)-1H-pyrazole-3-carboxamide] | Change of specific surface area (SSA) on milling to reduced particle size ([1]; batches A and B, milled vs unmilled): did not significantly change; Dv10 [2, 4]: 359 μm; Dv50 [2, 4]: 632 μm; Dv90 [2, 4]: 925 μm; Solubility in water [3]: poorly soluble in water
2 | 13 m^2/g | 3 μm | 96 μm | 292 μm |  |  |  |  | CC(O)c1cc(C(=O)N[C@@H](C)Cn2ccc(-c3ccc(C#N)c(Cl)c3)n2)n[nH]1 (stereo partly drawn) [B (milled)] | 
3 | 12 m^2/g | 176 μm | 389 μm | 826 μm |  |  |  |  | CC(O)c1cc(C(=O)N[C@@H](C)Cn2ccc(-c3ccc(C#N)c(Cl)c3)n2)n[nH]1 (stereo partly drawn) [B (unmilled)] | 
4 |  |  |  |  | 13 m^2/g | 171 μm | 407 μm | 625 μm | CC(O)c1cc(C(=O)N[C@@H](C)Cn2ccc(-c3ccc(C#N)c(Cl)c3)n2)n[nH]1 (stereo partly drawn) [A (unmilled)] | 
5 |  |  |  |  | 14 m^2/g | 2 μm | 36 μm | 218 μm | CC(O)c1cc(C(=O)N[C@@H](C)Cn2ccc(-c3ccc(C#N)c(Cl)c3)n2)n[nH]1 (stereo partly drawn) [A (milled)] | 
